26 molecules from patent publication US8148391B2 (Cephalon, Inc., priority 2006, dated 2012) can be followed below.

The target of assay [1] is T1, baculovirus-expressed ALK (Homo sapiens, UniProt Q9UM73).
T1 construct: host or cells: baculovirus expression system
Nature of the assay: ALK Kinase Assay (ELISA-type, time-resolved fluorescence). Conditions: ALK kinase inhibition, 1 μM ATP; read-out: ALK Activity. The class given is biochemical. The essentials:
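Substrate coating: phospholipase C-γ, 10 μg/mL in TBS. Kinase step: 30 ng/ml ALK, 15 min, 37° C. Detection and analysis: Eu-N1 PT66 antibody, with IC50 fitted as a sigmoidal variable-slope dose-response curve.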
A general note: An ELISA detects its analyte on a solid surface through an enzyme-linked reagent.

The target in assay [2] is T2, c-Met (cytoplasmic domain) (Homo sapiens, UniProt P08581).
T2 construct: 10 ng/mL c-Met (cytoplasmic domain, Invitrogen Corporation #PV3143); purchased Invitrogen Corporation PV3143
T2 sequence (P08581 956-1390 limits assumed): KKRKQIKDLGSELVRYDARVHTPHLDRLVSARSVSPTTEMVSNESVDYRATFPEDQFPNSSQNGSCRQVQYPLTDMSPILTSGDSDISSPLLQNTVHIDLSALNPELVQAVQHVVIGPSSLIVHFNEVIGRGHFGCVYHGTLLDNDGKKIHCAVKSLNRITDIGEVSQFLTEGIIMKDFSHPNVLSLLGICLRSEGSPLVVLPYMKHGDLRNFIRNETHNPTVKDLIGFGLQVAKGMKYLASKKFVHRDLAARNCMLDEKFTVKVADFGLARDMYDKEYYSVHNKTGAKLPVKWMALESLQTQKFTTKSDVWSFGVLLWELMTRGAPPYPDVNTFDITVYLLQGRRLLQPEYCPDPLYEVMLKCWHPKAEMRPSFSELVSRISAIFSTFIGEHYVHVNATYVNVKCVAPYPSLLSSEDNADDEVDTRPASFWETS
The experiment in a line: c-Met Kinase Assay (same methods as for ALK, with modifications). Type of assay: biochemical. The following applies: c-Met kinase inhibition, 1 μM ATP; read-out: cMet Activity. In outline: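 This plate-based kinase format uses immobilized phospholipase C-γ as substrate, phosphorylated by c-Met cytoplasmic domain (10 ng/mL) at 37° C for 15 minutes.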

T1 sequence (Q9UM73 19-1620): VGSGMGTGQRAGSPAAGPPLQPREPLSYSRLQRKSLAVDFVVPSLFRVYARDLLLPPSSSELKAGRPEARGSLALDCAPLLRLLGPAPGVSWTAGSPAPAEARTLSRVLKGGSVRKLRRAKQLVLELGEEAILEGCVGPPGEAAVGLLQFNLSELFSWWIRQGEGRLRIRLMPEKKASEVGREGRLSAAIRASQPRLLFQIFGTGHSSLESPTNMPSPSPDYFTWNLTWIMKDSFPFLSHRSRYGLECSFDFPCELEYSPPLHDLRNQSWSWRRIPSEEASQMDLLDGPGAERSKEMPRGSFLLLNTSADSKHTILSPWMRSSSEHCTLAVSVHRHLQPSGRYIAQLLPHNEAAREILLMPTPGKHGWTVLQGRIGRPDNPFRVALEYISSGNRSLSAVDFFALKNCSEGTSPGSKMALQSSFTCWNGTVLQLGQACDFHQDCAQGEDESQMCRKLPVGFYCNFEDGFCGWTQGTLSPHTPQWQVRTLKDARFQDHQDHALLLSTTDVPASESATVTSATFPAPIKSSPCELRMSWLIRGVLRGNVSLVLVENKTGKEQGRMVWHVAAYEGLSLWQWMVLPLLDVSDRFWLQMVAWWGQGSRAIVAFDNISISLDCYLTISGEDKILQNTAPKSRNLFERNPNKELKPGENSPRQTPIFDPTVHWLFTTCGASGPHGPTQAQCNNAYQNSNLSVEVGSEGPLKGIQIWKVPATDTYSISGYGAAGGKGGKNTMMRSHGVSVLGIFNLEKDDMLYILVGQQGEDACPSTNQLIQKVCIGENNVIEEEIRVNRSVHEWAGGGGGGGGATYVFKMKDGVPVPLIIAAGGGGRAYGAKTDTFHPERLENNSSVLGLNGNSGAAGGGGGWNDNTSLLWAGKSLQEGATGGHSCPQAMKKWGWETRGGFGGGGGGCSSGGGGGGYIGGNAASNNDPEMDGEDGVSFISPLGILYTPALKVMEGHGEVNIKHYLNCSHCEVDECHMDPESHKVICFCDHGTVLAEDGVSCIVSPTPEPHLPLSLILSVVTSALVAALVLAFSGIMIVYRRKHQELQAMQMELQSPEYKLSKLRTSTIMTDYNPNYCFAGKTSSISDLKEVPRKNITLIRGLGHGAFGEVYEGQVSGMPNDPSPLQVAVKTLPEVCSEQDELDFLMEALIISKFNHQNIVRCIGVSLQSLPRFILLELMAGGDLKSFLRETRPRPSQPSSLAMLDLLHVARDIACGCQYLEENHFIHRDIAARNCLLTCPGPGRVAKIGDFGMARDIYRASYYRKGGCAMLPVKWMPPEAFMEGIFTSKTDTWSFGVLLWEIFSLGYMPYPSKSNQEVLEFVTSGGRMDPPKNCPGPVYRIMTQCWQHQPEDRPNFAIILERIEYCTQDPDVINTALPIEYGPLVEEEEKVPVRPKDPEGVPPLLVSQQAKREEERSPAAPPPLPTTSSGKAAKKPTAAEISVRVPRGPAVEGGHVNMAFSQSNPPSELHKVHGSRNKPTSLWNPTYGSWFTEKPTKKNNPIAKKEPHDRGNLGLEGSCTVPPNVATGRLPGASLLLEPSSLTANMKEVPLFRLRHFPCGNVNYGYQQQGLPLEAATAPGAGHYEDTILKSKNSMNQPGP

As for `CN1Cc2cc(Nc3ncc(Cl)c(Nc4ccccc4-c4cc[nH]n4)n3)ccc2CCC1=O` [Example 1804, 8-{5-Chloro-4-[2-(1H-pyrazol-3-yl)-phenylamino]-pyrimidin-2-ylamino}-2-methyl-1,2,4,5-tetrahydro-benzo[c]azepin-3-one], the values for the IC50 in assay [1] and in assay [2] were below 0.1 µM and 0.1 to 1 µM, respectively.
As for `CNC(=O)c1cccc(Cl)c1Nc1nc(Nc2ccc3c(c2)CN(C)C(=O)CC3)ncc1Cl` [Example 1805, 3-Chloro-2-[5-chloro-2-(2-methyl-3-oxo-2,3,4,5-tetrahydro-1H-benzo[c]azepin-8-ylamino)-pyrimidin-4-ylamino]-N-methyl-benzamide], the figures for the IC50 in assay [1] and in assay [2] were below 0.1 µM and 0.1 to 1 µM, respectively.
Take `CNC(=O)c1cccc(F)c1Nc1nc(Nc2ccc3c(c2)CN(C)C(=O)CC3)ncc1Cl` [Example 1806, 3-Fluoro-2-[5-chloro-2-(2-methyl-3-oxo-2,3,4,5-tetrahydro-1H-benzo[c]azepin-8-ylamino)-pyrimidin-4-ylamino]-N-methyl-benzamide]: the IC50 in assay [1] was 1 to 10 µM; in assay [2], below 0.1 µM.
With `CNC(=O)c1c(Cl)sc(Cl)c1Nc1nc(Nc2ccc3c(c2)CN(C)C(=O)CC3)ncc1Cl` [Example 1807, 2,5-Dichloro-4-[5-chloro-2-(2-methyl-3-oxo-2,3,4,5-tetrahydro-1H-benzo[c]azepin-8-ylamino)-pyrimidin-4-ylamino]-thiophene-3-carboxylic acid methylamide], the IC50 in assay [1] and in assay [2] was below 0.1 µM each time.
Take `CNCc1ccccc1Nc1nc(Nc2ccc3c(c2)CN(C)C(=O)CC3)ncc1Cl` [Example 1808, 8-[5-Chloro-4-(2-methylaminomethyl-phenylamino)-pyrimidin-2-ylamino]-2-methyl-1,2,4,5-tetrahydro-benzo[c]azepin-3-one]: the IC50 in assay [1] is 1 to 10 µM; in assay [2], below 0.1 µM.
For `CNC(=O)c1cc(F)ccc1Nc1nc(Nc2ccc3c(c2)CN(C)C(=O)CC3)ncc1Cl` [Example 1809, 2-[5-Chloro-2-(2-methyl-3-oxo-2,3,4,5-tetrahydro-1H-benzo[c]azepin-8-ylamino)-pyrimidin-4-ylamino]-5-fluoro-N-methyl-benzamide] the same measures were 1 to 10 µM and 1 to 10 µM.
For the molecule `CN1Cc2cc(Nc3ncc(Cl)c(Nc4ccccc4OCC#N)n3)ccc2CCC1=O` [Example 1810, {2-[5-Chloro-2-(2-methyl-3-oxo-2,3,4,5-tetrahydro-1H-benzo[c]azepin-8-ylamino)-pyrimidin-4-ylamino]-phenoxy}-acetonitrile], the IC50 in assay [1] and in assay [2] was below 0.1 µM throughout.
`CNC(=O)c1ccccc1Nc1nc(Nc2ccc3c(c2)CC(=O)NCC3)ncc1Cl` [Example 1811, 2-[5-Chloro-2-(4-oxo-2,3,4,5-tetrahydro-1H-benzo[d]azepin-7-ylamino)-pyrimidin-4-ylamino]-N-methylbenzamide]: the IC50 in assay [1] and in assay [2] was below 0.1 µM in each case.
As for `CNC(=O)c1scc(C)c1Nc1nc(Nc2ccc3c(c2)CC(=O)NCC3)ncc1Cl` [Example 1812, 3-[5-Chloro-2-(4-oxo-2,3,4,5-tetrahydro-1H-benzo[d]azepin-7-ylamino)-pyrimidin-4-ylamino]-4-methyl-thiophene-2-carboxylic acid methylamide], the IC50 in assay [1] and in assay [2] was below 0.1 µM each time.
As for `O=C1Cc2ccc(Nc3ncc(Cl)c(Nc4ccccc4-n4cccn4)n3)cc2CCN1` [Example 1813, 7-[5-Chloro-4-(2-pyrazol-1-yl-phenylamino)-pyrimidin-2-ylamino]-1,3,4,5-tetrahydro-benzo[d]azepin-2-one], the IC50 in assay [1] is 1 to 10 µM; in assay [2], below 0.1 µM.
As for `CNC(=O)c1cc(C)cc(C)c1Nc1nc(Nc2ccc3c(c2)CCNC(=O)C3)ncc1Cl` [Example 1814, 2-[5-Chloro-2-(2-oxo-2,3,4,5-tetrahydro-1H-benzo[d]azepin-7-ylamino)-pyrimidin-4-ylamino]-3,5,N-trimethyl-benzamide], the IC50 in assay [1] was below 0.1 µM; in assay [2], 0.1 to 1 µM.
Take `CNC(=O)c1ccccc1Nc1nc(Nc2ccc3c(c2)CC(=O)N(C)CC3)ncc1Cl` [Example 1815, 2-[5-Chloro-2-(3-methyl-4-oxo-2,3,4,5-tetrahydro-1H-benzo[d]azepin-7-ylamino)-pyrimidin-4-ylamino]-N-methylbenzamide]: the figures for the IC50 in assay [1] and in assay [2] were 1 to 10 µM and 0.1 to 1 µM, respectively.
On to `CNC(=O)c1scc(C)c1Nc1nc(Nc2ccc3c(c2)CC(=O)N(C)CC3)ncc1Cl` [Example 1816, 3-[5-Chloro-2-(3-methyl-4-oxo-2,3,4,5-tetrahydro-1H-benzo[d]azepin-7-ylamino)-pyrimidin-4-ylamino]-4-methyl-thiophene-2-carboxylic acid methylamide], for which the IC50 in assay [1] is below 0.1 µM; in assay [2], 0.1 to 1 µM.
On to `CNC(=O)c1cccc(Cl)c1Nc1nc(Nc2ccc3c(c2)CC(=O)N(C)CC3)ncc1Cl` [Example 1817, 3-Chloro-2-[5-chloro-2-(3-methyl-4-oxo-2,3,4,5-tetrahydro-1H-benzo[d]azepin-7-ylamino)-pyrimidin-4-ylamino]-N-methylbenzamide], for which the results for the IC50 in assay [1] and in assay [2] were 1 to 10 µM and 0.1 to 1 µM, respectively.
In the case of `CNC(=O)c1ncccc1Nc1nc(Nc2ccc3c(c2)CC(=O)N(C)CC3)ncc1Cl` [Example 1820, 3-[5-Chloro-2-(3-methyl-4-oxo-2,3,4,5-tetrahydro-1H-benzo[d]azepin-7-ylamino)-pyrimidin-4-ylamino]-pyridine-2-carboxylic acid methylamide], the IC50 in assay [1] is below 0.1 µM; in assay [2], 1 to 10 µM.
Take `CNC(=O)c1cnn(C)c1Nc1nc(Nc2ccc3c(c2)CC(=O)N(C)CC3)ncc1Cl` [Example 1821, 5-[5-Chloro-2-(3-methyl-4-oxo-2,3,4,5-tetrahydro-1H-benzo[d]azepin-7-ylamino)-pyrimidin-4-ylamino]-1-methyl-1H-pyrazole-4-carboxylic acid methylamide]: the IC50 in assay [1] and in assay [2] was 0.1 to 1 µM each time.
Regarding `CC(C)[C@@H](Nc1nc(Nc2ccc3c(c2)CC(=O)N(C)CC3)ncc1Cl)C(N)=O` [Example 1822, (R)-2-[5-Chloro-2-(3-methyl-4-oxo-2,3,4,5-tetrahydro-1H-benzo[d]azepin-7-ylamino)-pyrimidin-4-ylamino]-3-methyl-butyramide], the IC50 in assay [1] and in assay [2] was 1 to 10 µM throughout.
In the case of `CC(C)[C@H](Nc1nc(Nc2ccc3c(c2)CC(=O)N(C)CC3)ncc1Cl)C(N)=O` [Example 1823, (S)-2-[5-Chloro-2-(3-methyl-4-oxo-2,3,4,5-tetrahydro-1H-benzo[d]azepin-7-ylamino)-pyrimidin-4-ylamino]-3-methyl-butyramide], the IC50 in assay [1] was 1 to 10 µM; in assay [2] it was above 10 µM.
For the molecule `CNC(=O)c1ccccc1N(C)c1nc(Nc2ccc3c(c2)CC(=O)N(C)CC3)ncc1F` [Example 1824, 2-{[5-Fluoro-2-(3-methyl-4-oxo-2,3,4,5-tetrahydro-1H-benzo[d]azepin-7-ylamino)-pyrimidin-4-yl]-methyl-amino}-N-methyl-benzamide], the IC50 is 1 to 10 µM in assay [1] and above 10 µM in assay [2].
For `CN1CCc2ccc(Nc3ncc(Cl)c(Nc4ccccc4-c4cc[nH]n4)n3)cc2CC1=O` [Example 1825, 8-{5-Chloro-4-[2-(1H-pyrazol-3-yl)-phenylamino]-pyrimidin-2-ylamino}-3-methyl-1,3,4,5-tetrahydro-benzo[d]azepin-2-one] the same measures were above 10 µM and above 10 µM.
For `CNC(=O)c1cccc(F)c1Nc1nc(Nc2ccc3c(c2)CCC(=O)NC3(C)C)ncc1Cl` [Example 1826, 2-(5-Chloro-2-(1,1-dimethyl-3-oxo-2,3,4,5-tetrahydro-1H-benzo[c]azepin-7-ylamino)pyrimidin-4-ylamino)-3-fluoro-N-methylbenzamide], the IC50 in assay [1] and in assay [2] was 1 to 10 µM throughout.
For `CNC(=O)c1ccccc1Nc1nc(Nc2ccc3c(c2)CCC(=O)NC3(C)C)ncc1Cl` [Example 1827, 2-(5-Chloro-2-(1,1-dimethyl-3-oxo-2,3,4,5-tetrahydro-1H-benzo[c]azepin-7-ylamino)pyrimidin-4-ylamino)-N-methylbenzamide], the IC50 in assay [1] and in assay [2] was below 0.1 µM in each case.
As to `CNC(=O)c1cccc(Cl)c1Nc1nc(Nc2ccc3c(c2)CCC(=O)NC3(C)C)ncc1Cl` [Example 1828, 3-Chloro-2-(5-chloro-2-(1,1-dimethyl-3-oxo-2,3,4,5-tetrahydro-1H-benzo[c]azepin-7-ylamino)pyrimidin-4-ylamino)-N-methylbenzamide], the IC50 in assay [1] and in assay [2] was below 0.1 µM throughout.
In the case of `CNC(=O)c1scc(C)c1Nc1nc(Nc2ccc3c(c2)CCC(=O)NC3(C)C)ncc1Cl` [Example 1829], the IC50 in assay [1] was 1 to 10 µM; in assay [2] it was below 0.1 µM.
For `CNC(=O)c1cccc(C)c1Nc1nc(Nc2ccc3c(c2)CCC(=O)NC3(C)C)ncc1Cl` [Example 1830, 2-(5-Chloro-2-(1,1-dimethyl-3-oxo-2,3,4,5-tetrahydro-1H-benzo[c]azepin-7-ylamino)pyrimidin-4-ylamino)-N,3-dimethylbenzamide] the same measures were 1 to 10 µM and below 0.1 µM.
Take `CNC(=O)c1cccc(F)c1Nc1nc(Nc2ccc3c(c2)C(C)(C)NC(=O)CC3)ncc1Cl` [Example 1831, 2-(5-Chloro-2-(1,1-dimethyl-3-oxo-2,3,4,5-tetrahydro-1H-benzo[c]azepin-8-ylamino)pyrimidin-4-ylamino)-3-fluoro-N-methylbenzamide]: the results for the IC50 in assay [1] and in assay [2] were 1 to 10 µM and below 0.1 µM, respectively.
